According to US20170007619A1, “High Dose Dehydroepiandrosterone as Anticancer Treatment With Multi-faceted Reconstitution of Otherwise Depleted Metabolites” (priority 2015, published 2017):
Entries after “also recorded” stand apart in the source; their conditions may differ.

Key:
[1] = Depletion and reconstitution of metabolites in dogs treated with HD DHEA; type: in vivo; conditions: for ubiquinone levels with supplementation in DHEA-treated animals: supplementation with ubiquinone and tocotrienols
Protocol: FIG. 4. […] For IPA quantitation, preliminary in vitro studies were performed in which DHEA-treated and control HT-29SF cells were exposed to [^3H]-mevalonic acid (saponified; data not shown). […] For ease of presentation, pretreatment values for all 3 determinations (BH4, IPA and ubiquinone) were given a value of 1, with treatment values presented as their respective fraction thereof. Male and female dogs had blood or other specimens drawn pretreatment, and then following 90 days of 10 mg/kg DHEA±reconstitution protocol.
FIG. 6. […] Fifteen ml blood samples were drawn and the buffy coat was isolated by low speed centrifugation in the standard manner. […] AMP, ADP and ATP were quantitated. […] For ease of presentation, pretreatment values are presented with a value of 1, with treatment values presented as their respective fraction thereof.
FIG. 8. […] Ten mg of intestinal mucosa was analyzed for each animal. […] Results are presented as percentage of values in pretreatment dogs, mean±SEM.
FIG. 10. […] 24 hour urine was collected from neutered male and female animals in amber glass containment vessels. To 100 ml of urine was added 1 ml of concentrated HCL as preservative. […] These same dogs were then administered DHEA (10 mg/kg)±the reconstitution regimen which included the monoamine mix described above. This treatment continued for 90 days, at which time further urine specimens were collected and assayed for norepinephrine. The data are reported as the mean±SEM.
FIG. 11. […] Before treatment, 10-15 ml blood samples were taken from male and female neutered dogs, and plasma was collected by low speed centrifugation by the standard method.

[2] = Side effects of HD DHEA and their prevention by reconstitution; type: in vivo, dogs; conditions: for DHEA-induced ocular (ophthalmic) inflammation on reconstitution: dogs administered DHEA, IPA (and BH4) added; for susceptibility to infections under DHEA with concurrent reconstitution: dogs and cats; for susceptibility to infections under DHEA with concurrent reconstitution / fluid retention symptoms under DHEA with concurrent reconstitution: concurrent BH4, potassium nitrate and IPA; for fluid retention symptoms under DHEA with concurrent reconstitution: dogs
Description: Table 1. Physical symptoms associated with HD DHEA-induced Nitric Oxide (NO) depletion.

spontaneous cancers = assay: HD DHEA in cancer stricken dogs (spontaneous cancers, Table 3); type: in vivo
Description: In preliminary experiments we exposed human colonic carcinoma HT29SF cells to various doses of DHEA and assessed the effects of such treatment upon cell cycle kinetics.
Table 3. Decreased tumor volume, increased longevity (compared to historical controls), and improved quality of life in dogs with spontaneous cancers.

[3] = molecular target: Glucose-6-phosphate dehydrogenase (G6PD) (Homo sapiens, UniProt P11413); conditions: cited from earlier work
[4] = system: 1,2-dimethylhydrazine-induced colonic tumors, which metastasize to the liver; assay: Carcinogen (1,2-dimethylhydrazine)-induced tumors in dogs ± HD DHEA (Table 2); type: in vivo
Description: Table 2. Decreased tumor volume and increased longevity in dogs administered HD DHEA to treat […] tumors. […] Organotropic carcinogens produce tumors in specific organs. Dimethylhydrazine produces exclusively colonic tumors, which metastasize to the liver. In this series of experiments 13 dogs were exposed to DMH only, and 13 were exposed to DMH followed by treatment with HD DHEA.

[5] = system: human colonic carcinoma HT29SF cells; assay: Flow cytometric cell cycle analysis of HT-29SF cells exposed to DHEA; type: cell-based
statin-treated cells = conditions: cited from earlier work
[6] = tissues of animals administered HD DHEA
[7] = tissues of dogs administered HD DHEA
[8] = DMH followed by HD DHEA, Student's t test

Sequence of Glucose-6-phosphate dehydrogenase (G6PD) (P11413 whole entry, species assumed): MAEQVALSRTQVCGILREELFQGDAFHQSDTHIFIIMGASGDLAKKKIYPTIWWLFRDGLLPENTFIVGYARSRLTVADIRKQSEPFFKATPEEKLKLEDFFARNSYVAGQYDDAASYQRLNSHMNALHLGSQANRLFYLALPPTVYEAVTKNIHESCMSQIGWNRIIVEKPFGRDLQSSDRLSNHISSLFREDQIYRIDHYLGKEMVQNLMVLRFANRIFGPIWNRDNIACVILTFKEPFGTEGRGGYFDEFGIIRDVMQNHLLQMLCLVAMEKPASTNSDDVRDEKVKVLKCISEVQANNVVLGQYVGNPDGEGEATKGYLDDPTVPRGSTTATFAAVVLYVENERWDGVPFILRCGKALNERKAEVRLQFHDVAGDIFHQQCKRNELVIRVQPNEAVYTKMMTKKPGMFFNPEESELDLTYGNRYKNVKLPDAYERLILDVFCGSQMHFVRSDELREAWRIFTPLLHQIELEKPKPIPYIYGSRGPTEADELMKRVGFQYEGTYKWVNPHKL

CC(O)C(O)C1CNc2nc(N)[nH]c(=O)c2N1 (stereo not shown) [BH4, tetrahydrobiotperin]
dopamine, norepinephrine and epinephrine levels on replenishment of BH4 ([1]; DHEA-treated animals): restoring normal or near normal | DHEA-induced ocular (ophthalmic) inflammation on reconstitution [2]: prevents | susceptibility to infections under DHEA with concurrent reconstitution [2]: eliminated | fluid retention symptoms under DHEA with concurrent reconstitution [2]: eliminated

C[C@]12CC[C@H](O)CC1=CC[C@@H]1[C@@H]2CC[C@]2(C)C(=O)CC[C@@H]12 [DHEA, Dehydroepiandrosterone]
NO level during HD DHEA ([1]; animals administered HD DHEA): depleted | total pools of isopentenylated tRNA ([1]; buffy coat lymphocytes of dogs treated with DHEA, HPLC): depleted | ubiquinone levels, continuous DHEA treatment ([1]; continuous treatment at doses capable of inducing HD DHEA): decline; also recorded: depleted | one carbon pool products (e.g., AMP, ADP, ATP; purines, pyrimidines, S-adenosylmethionine) during HD DHEA ([1]; dogs administered HD DHEA): profoundly depleted | ubiquinone levels, short term DHEA exposure ([1]; over the short term): increased | BH4 level during HD DHEA [1, 6]: depleted | IPA level during HD DHEA [1, 6]: becomes depleted | important monoamines during HD DHEA [1, 7]: depleted | phenylalanine levels during HD DHEA [1, 7]: increased | longevity (spontaneous cancers; HD DHEA): significant improvements in longevity | tumor volume (spontaneous cancers; HD DHEA): decreases in tumor volume | quality of life (spontaneous cancers; HD DHEA supplemented with specific metabolites): increases in quality of life | G6PD inhibition [3]: potent uncompetitive inhibitor of G6PD | number of tumors induced, control vs HD DHEA-treated dogs ([4]; 13 dogs DMH only vs 13 DMH followed by HD DHEA): not statistically different | number and total weight of hepatic metastases, control vs HD DHEA-treated dogs [4, 8]: statistically significant | weight of the individual colonic tumors, control vs HD DHEA-treated dogs [4, 8]: statistically significant | side effects observed with HD DHEA ([2]; HD DHEA without reconstitution): motor incoordination sometimes occurs; also recorded: susceptibility to infections, particularly in the ear and eye; also recorded: induction of vasoconstriction; also recorded: Fluid retention; also recorded: auto-inflammatory-like disorder | effect on cell cycle kinetics ([5]; HT29SF cells exposed to various doses of DHEA): arrested cells in the G1 phase of the cell cycle

CC(C)=CCNc1ncnc2c1ncn2[C@@H]1O[C@H](CO)[C@@H](O)[C@H]1O [IPA, N6-Δ2-isopentenyladenosine]
DHEA-induced ocular (ophthalmic) inflammation on reconstitution [2]: prevents; also recorded: completely prevent | susceptibility to infections under DHEA with concurrent reconstitution [2]: eliminated | fluid retention symptoms under DHEA with concurrent reconstitution [2]: eliminated

CC(C)=CCNc1ncnc2nc[nH]c12 [Isopentenyladenine]
activity in restoring DNA synthesis relative to mevalonate (statin-treated cells): approximately 100 fold

N[C@@H](Cc1ccc(O)c(O)c1)C(=O)O [L-DOPA]
emesis ([2]; dog, in vivo): can lead to emesis in some dogs

C[C@@](O)(CCO)CC(=O)O [mevalonic acid]
reversal of DHEA-induced cell cycle arrest ([5]; addition of mevalonic acid and nucleosides to DHEA-treated HT29SF cells): partly or completely reversed

O=[N+]([O-])[O-].[K+] [potassium nitrate]
replenishment of NO in animals undergoing HD DHEA ([1]; potassium nitrate as NO donor): can replenish NO | symptoms associated with NO depletion ([2]; animals undergoing HD DHEA plus potassium nitrate): eliminating | susceptibility to infections under DHEA with concurrent reconstitution [2]: eliminated | fluid retention symptoms under DHEA with concurrent reconstitution [2]: eliminated

C[C@]12C=CC(=O)C=C1CC[C@@H]1[C@@H]2C(=O)C[C@@]2(C)[C@H]1CC[C@]2(O)C(=O)CO [prednisone]
G6PD inhibition [3]: does not inhibit G6PD

COC1=C(OC)C(=O)C(C/C=C(\C)CC/C=C(\C)CC/C=C(\C)CC/C=C(\C)CC/C=C(\C)CC/C=C(\C)CC/C=C(\C)CC/C=C(\C)CC/C=C(\C)CCC=C(C)C)=C(C)C1=O [ubiquinone]
combination of ubiquinone and tocotrienols vs ubiquinone alone, retaining ubiquinone levels ([1]; DHEA-treated animals): more effective | ubiquinone levels with supplementation in DHEA-treated animals [1]: maintains normal or near normal ubiquinone levels

tocotrienols
combination of ubiquinone and tocotrienols vs ubiquinone alone, retaining ubiquinone levels ([1]; DHEA-treated animals): more effective | ubiquinone levels with supplementation in DHEA-treated animals [1]: maintains normal or near normal ubiquinone levels
